Source: PubChem BioAssay AID248 (DTP/NCI, 2004)
Where “and” joins values, the source holds several entries; their conditions need not be identical. Identical values can stand only once. Toxic doses and inconclusive results are not listed.

Test system: L1210 leukemia ip in BDF1 mice, survival T/C
Experiment: NCI In Vivo Anticancer Drug Screen. Data for tumor model L1210 Leukemia (intraperitoneal) in B6D2F1 (BDF1) mice
Conditions: endpoint: mean survival time, higher = longer survival
In short: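 Survival endpoint. Drug-treated group vs vehicle group, expressed as T divided by C. Tumor passaged by transplantation.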

O=C1CN=C(c2ccc[nH]2)c2cc(Cl)ccc2N1
T/C (dose: 1.56 mg/kg/injection, schedule: Q03HX008 (oral), vehicle: saline with Tween-80): 98 % of control | T/C (dose: 1.56 mg/kg/injection, schedule: Q03HX016 (oral), vehicle: saline with Tween-80): 103 % of control | T/C (dose: 1.56 mg/kg/injection, schedule: Q03HX024 (oral), vehicle: saline with Tween-80): 98 % of control | T/C (dose: 3.12 mg/kg/injection, schedule: Q03HX008 (oral), vehicle: saline with Tween-80): 97 % of control | T/C (dose: 3.12 mg/kg/injection, schedule: Q03HX016 (oral), vehicle: saline with Tween-80): 102 % of control | T/C (dose: 3.12 mg/kg/injection, schedule: Q03HX024 (oral), vehicle: saline with Tween-80): 100 % of control | T/C (dose: 6.25 mg/kg/injection, schedule: Q03HX008 (oral), vehicle: saline with Tween-80): 98 % of control | T/C (dose: 6.25 mg/kg/injection, schedule: Q03HX016 (ip), vehicle: other): 105 % of control | T/C (dose: 6.25 mg/kg/injection, schedule: Q03HX016 (oral), vehicle: saline with Tween-80): 98 % of control | T/C (dose: 6.25 mg/kg/injection, schedule: Q03HX024 (ip), vehicle: other): 114 % of control | T/C (dose: 6.25 mg/kg/injection, schedule: Q03HX024 (oral), vehicle: saline with Tween-80): 97 % of control | T/C (dose: 7.13 mg/kg/injection, schedule: Q01DX009 (ip), vehicle: clinical formulation): 102 % of control | T/C (dose: 12.5 mg/kg/injection, schedule: Q03HX008 (oral), vehicle: saline with Tween-80): 102 % of control | T/C (dose: 12.5 mg/kg/injection, schedule: Q03HX016 (ip), vehicle: other): 104 % of control | T/C (dose: 12.5 mg/kg/injection, schedule: Q03HX016 (oral), vehicle: saline with Tween-80): 97 % of control | T/C (dose: 12.5 mg/kg/injection, schedule: Q03HX024 (ip), vehicle: other): 114 % of control | T/C (dose: 12.5 mg/kg/injection, schedule: Q03HX024 (oral), vehicle: saline with Tween-80): 101 % of control | T/C (dose: 14.2 mg/kg/injection, schedule: Q01DX009 (ip), vehicle: clinical formulation): 103 % of control | T/C (dose: 25.0 mg/kg/injection, schedule: Q01DX006 (iv), vehicle: other): 100 % of control | T/C (dose: 25.0 mg/kg/injection, schedule: Q03HX008 (oral), vehicle: saline with Tween-80): 100 % of control and 101 % of control | T/C (dose: 25.0 mg/kg/injection, schedule: Q03HX016 (ip), vehicle: other): 112 % of control | T/C (dose: 25.0 mg/kg/injection, schedule: Q03HX016 (oral), vehicle: saline with Tween-80): 95 % of control and 103 % of control | T/C (dose: 25.0 mg/kg/injection, schedule: Q03HX024 (oral), vehicle: saline with Tween-80): 95 % of control and 98 % of control | T/C (dose: 33.0 mg/kg/injection, schedule: Q01DX015 (ip), vehicle: other): 123 % of control | T/C (dose: 33.0 mg/kg/injection, schedule: Q01DX Z (ip), vehicle: carboxymethylcellulose (CMC)): 120 % of control | T/C (dose: 34.0 mg/kg/injection, schedule: Q01DX009 (ip), vehicle: other): 105 % of control | T/C (dose: 50.0 mg/kg/injection, schedule: Q01DX001 (iv), vehicle: other): 101 % of control | T/C (dose: 50.0 mg/kg/injection, schedule: Q01DX006 (iv), vehicle: other): 102 % of control | T/C (dose: 50.0 mg/kg/injection, schedule: Q01DX009 (ip), vehicle: Klucel (hydroxypropylcellulose) (HPC)): 103 % of control | T/C (dose: 50.0 mg/kg/injection, schedule: Q01DX009 (ip), vehicle: water): 118 % of control | T/C (dose: 50.0 mg/kg/injection, schedule: Q01DX015 (ip), vehicle: other): 121 % of control | T/C (dose: 50.0 mg/kg/injection, schedule: Q01DX Z (ip), vehicle: carboxymethylcellulose (CMC)): 155 % of control | T/C (dose: 50.0 mg/kg/injection, schedule: Q03HX008 (oral), vehicle: saline with Tween-80): 108 % of control | T/C (dose: 50.0 mg/kg/injection, schedule: Q03HX016 (ip), vehicle: other): 122 % of control | T/C (dose: 50.0 mg/kg/injection, schedule: Q03HX016 (oral), vehicle: saline with Tween-80): 112 % of control | T/C (dose: 50.0 mg/kg/injection, schedule: Q03HX024 (ip), vehicle: other): 150 % of control | T/C (dose: 50.0 mg/kg/injection, schedule: Q03HX024 (oral), vehicle: saline with Tween-80): 110 % of control | T/C (dose: 50.0 mg/kg/injection, schedule: Q04DX003 (ip), vehicle: other): 108 % of control | T/C (dose: 50.0 mg/kg/injection, schedule: Q08DX002 (ip), vehicle: other): 96 % of control | T/C (dose: 52.0 mg/kg/injection, schedule: Q01DX009 (ip), vehicle: other): 98 % of control | T/C (dose: 75.0 mg/kg/injection, schedule: Q01DX Z (ip), vehicle: carboxymethylcellulose (CMC)): 174 % of control | T/C (dose: 80.0 mg/kg/injection, schedule: Q01DX009 (ip), vehicle: other): 108 % of control | T/C (dose: 100.0 mg/kg/injection, schedule: Q01DX001 (ip), vehicle: other): 98 % of control | T/C (dose: 100.0 mg/kg/injection, schedule: Q01DX001 (iv), vehicle: other): 101 % of control | T/C (dose: 100.0 mg/kg/injection, schedule: Q01DX001 (oral), vehicle: saline with Tween-80): 102 % of control | T/C (dose: 100.0 mg/kg/injection, schedule: Q01DX006 (iv), vehicle: other): 110 % of control | T/C (dose: 100.0 mg/kg/injection, schedule: Q01DX009 (ip), vehicle: Klucel (hydroxypropylcellulose) (HPC)): 105 % of control | T/C (dose: 100.0 mg/kg/injection, schedule: Q01DX009 (oral), vehicle: saline with Tween-80): 114 % of control
